Assay results taken from patent publication US20120207763A1, “PYRROLOPYRIMIDINE COMPOUNDS AND THEIR USES” (ASTEX THERAPEUTICS LIMITED, priority 2006, published 2012).
Like-named read-outs stand apart in the source and are kept apart here.

Experiments:
[1] = target: CDK2/Cyclin-A kinase complex (Homo sapiens, UniProt P24941); assay: CDK2 IMAP fluorescence polarization assay; assay type: biochemical; conditions: Table E; read-out: CDK2cyA IMAP/IC50 [umol l − 1]
Excerpt: In order to test the CDK2 activity of the compounds of the invention, the CDK2 assay is a flourescence polarization assay, where the enzyme is a purified active CDK2/Cyclin-A kinase complex and the substrate is a synthesized peptide derived from Histone H1. This assay utilizes the IMAP technology from Molecular Devices. The active CDK2/Cyclin-A complex phosphorylates the peptide substrate, which is conjugated with the TAMRA tag. The phosphorylated site is then recognized by a metal containing molecule that interacts with the TAMRA tag to induce a high flourescence polarization. The compounds that inhibit the CDK2 kinase activity would inhibit the flourescence output of the assay.

[2] = target: CDK4 (Homo sapiens, UniProt P11802); assay: CDK4 HTRF assay; assay type: biochemical; conditions: Table E
[3] = read-out: CDK4 HTRF/IC50 [umol l − 1]

Sequence of CDK4 (P11802 whole entry): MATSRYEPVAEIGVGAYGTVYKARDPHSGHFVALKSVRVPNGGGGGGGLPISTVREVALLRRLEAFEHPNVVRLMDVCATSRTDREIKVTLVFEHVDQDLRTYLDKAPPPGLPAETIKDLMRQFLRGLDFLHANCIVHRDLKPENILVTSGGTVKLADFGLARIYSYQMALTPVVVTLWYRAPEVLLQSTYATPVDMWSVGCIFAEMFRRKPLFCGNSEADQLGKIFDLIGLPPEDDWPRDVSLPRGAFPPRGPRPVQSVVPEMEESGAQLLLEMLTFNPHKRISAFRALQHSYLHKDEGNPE
Sequence of CDK4 (P24385 whole entry partner): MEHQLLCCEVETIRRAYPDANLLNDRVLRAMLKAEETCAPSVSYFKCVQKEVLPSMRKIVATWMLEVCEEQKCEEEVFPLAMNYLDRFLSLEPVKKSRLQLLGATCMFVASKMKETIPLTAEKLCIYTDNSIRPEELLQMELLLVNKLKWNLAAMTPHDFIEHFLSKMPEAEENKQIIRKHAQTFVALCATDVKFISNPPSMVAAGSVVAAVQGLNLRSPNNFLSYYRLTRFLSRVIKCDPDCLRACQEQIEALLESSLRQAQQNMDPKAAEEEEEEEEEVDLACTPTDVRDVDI

IC50 [1] [µM]	IC50 [2, 3] [µM]	SMILES	IC50 ([2]; CDK4 HTRF/IC50 [umol l − 1]) [µM]
> 10	–	CCC(CC)n1c(C(=O)NC2CCCC2)cc2cnc(Nc3ccc(N4CCNCC4)cc3)nc21 [Example 344]	–
< 10	< 1	CCC(CC)n1c(C(=O)Nc2ccccc2)cc2cnc(Nc3ccc(N4CCNCC4)cc3)nc21 [Example 345]	–
< 1	< 1	CCC(CC)n1c(-c2cnco2)cc2cnc(Nc3ccc(N4CCN(C(C)=O)CC4)cc3)nc21 [Example 363, 1-(4-{4-[7-(1-Ethyl-propyl)-6-oxazol-5-yl-7H-pyrrolo[2,3-d]pyrimidin-2-ylamino]-phenyl}-piperazin-1-yl)-ethanone]	–
< 10	–	CCC(CC)n1c(CNC(C)C)cc2cnc(Nc3ccc(N4CCN(C(C)=O)CC4)cc3)nc21 [Example 366]	–
< 10	–	CCC(CC)n1c(CNC(C)C)cc2cnc(Nc3ccc(N4CCNCC4)cc3)nc21 [Example 367]	–
< 10	–	CCC(CC)n1c(C(=O)OC)cc2cnc(Nc3ccc(N4CCN(C(C)=O)CC4)cc3)nc21 [Example 373, 2-[4-(4-Acetyl-piperazin-1-yl)-phenylamino]-7-(1-ethyl-propyl)-7H-pyrrolo[2,3-d]pyrimidine-6-carboxylic acid methyl ester]	–
< 10	< 1	CCC(CC)n1c(C(C)O)cc2cnc(Nc3ccc(N4CCN(C(C)=O)CC4)cc3)nc21 (stereo not drawn) [Example 376, 1-(4-{4-[7-(1-Ethyl-propyl)-6-(1-hydroxy-ethyl)-7H-pyrrolo[2,3-d]pyrimidin-2-ylamino]-phenyl}-piperazin-1-yl)-ethanone]	–
< 1	< 1	CCC(CC)n1c(C(C)=O)cc2cnc(Nc3ccc(N4CCN(C(C)=O)CC4)cc3)nc21 [Example 377, 1-[2-[4-(4-Acetyl-piperazin-1-yl)-phenylamino]-7-(1-ethyl-propyl)-7H-pyrrolo[2,3-d]pyrimidin-6-yl]-ethanone]	–
< 10	< 1	CCC(CC)n1c(C(C)OC)cc2cnc(Nc3ccc(N4CCNCC4)cc3)nc21 (stereo not drawn) [Example 378, [7-(1-Ethyl-propyl)-6-(1-methoxy-ethyl)-7H-pyrrolo[2,3-d]pyrimidin-2-yl]-(4-piperazin-1-yl-phenyl)-amine]	–
> 10	< 1	COC(=O)c1c(C)c2cnc(Nc3ccc(N4CCNCC4)cn3)nc2n1C1CCCC1 [Example 384, 7-Cyclopentyl-5-methyl-2-(5-piperazin-1-yl-pyridin-2-ylamino)-7H-pyrrolo[2,3-d]pyrimidine-6-carboxylic acid methyl ester]	–
> 10	> 10	COC(=O)c1c(C)n(C2CCCC2)c2nc(Nc3ccc(N4CCNCC4)cn3)ncc12 [Example 385, 7-Cyclopentyl-6-methyl-2-(5-piperazin-1-yl-pyridin-2-ylamino)-7H-pyrrolo[2,3-d]pyrimidine-5-carboxylic acid methyl ester]	–
> 10	–	CC(=O)c1c(C)c2cnc(Nc3ccc(N4CCNCC4)cn3)nc2n1C1CCOCC1 [Example 388]	–
< 10	< 1	Cc1c(-c2cnco2)n(C2CCCC2)c2nc(Nc3ccc(N4CCNCC4)cn3)ncc12 [Example 399]	–
> 10	< 1	Cc1cc(-c2c(C)c3cnc(Nc4ccc(N5CCNCC5)cn4)nc3n2C2CCCC2)[nH]n1 [Example 404]	–
> 10	–	Cc1cc(-c2c(C)c3cnc(Nc4ccc(N5CCNCC5)cn4)nc3n2C2CCCC2)on1 [Example 405]	–
> 10	> 10	COC(=O)c1c(C)n(C2CCCC2)c2nc(Nc3ccc(N4CCNCC4)cc3)ncc12 [Example 408]	–
> 10	< 1	Cc1cn(C2CCCCC2)c2nc(Nc3ccc(N4CCNCC4)cn3)ncc12 [Example 426]	–
> 10	> 10	Brc1cn(C2CCCC2)c2nc(Nc3ccc(N4CCNCC4)cn3)ncc12 [Example 432]	–
> 10	< 1	Clc1cn(C2CCCC2)c2nc(Nc3ccc(N4CCNCC4)cn3)ncc12 [Example 433]	–
> 10	> 10	Cc1ccc(Nc2ncc3ccn(C4CCCC4)c3n2)nc1 [Example 434]	–
< 10	> 10	Cc1ccc(Nc2ncc3ccn(C4CCCC4)c3n2)cc1 [Example 435]	–
> 10	–	Cc1cn(-c2ccccc2)c2nc(Nc3ccc(N4CCNCC4)cc3)ncc12 [Example 437]	–
< 10	–	CCc1cn(C2CCCC2)c2nc(Nc3ccc(N4CCNCC4)cc3)ncc12 [Example 438]	–
> 10	–	CC(C)c1cn(C2CCCC2)c2nc(Nc3ccc(N4CCNCC4)cn3)ncc12 [Example 440]	–
> 10	10	Cc1cn(C2CCCC2)c2nc(Nc3ccccc3F)ncc12 [Example 441]	–
< 10	10	Cc1cn(C2CCCC2)c2nc(Nc3ccc(F)cc3)ncc12 [Example 442]	–
> 10	10	Cc1cn(C2CCCC2)c2nc(Nc3ccccc3Cl)ncc12 [Example 443]	–
> 10	< 1	Cc1c(C(=O)O)n(C2CCCC2)c2nc(Nc3ccc(N4CCNCC4)cn3)ncc12 [Example 444]	–
< 10	10	Cc1cn(-c2nccs2)c2nc(Nc3ccc(N4CCN(S(C)(=O)=O)CC4)cn3)ncc12 [Example 446]	–
> 10	10	Cc1cn(-c2cccnc2)c2nc(Nc3ccc(N4CCNCC4)cn3)ncc12 [Example 447]	–

More lines, now with the values behind:

SMILES	IC50 [1] [µM]	IC50 [2, 3] [µM]	IC50 ([2]; CDK4 HTRF/IC50 [umol l − 1]) [µM]
CCC(CC)n1ccc2cnc(Nc3ccc(N4CCNCC4)cc3)nc21 [Example 202, [7-(1-Ethyl-propyl)-7H-pyrrolo[2,3-d]pyrimidin-2-yl]-(4-piperazin-1-yl-phenyl)-amine]	< 10	< 1	–
CCC(C)n1ccc2cnc(Nc3ccc(N4CCNCC4)cc3)nc21 (stereo not drawn) [Example 230]	< 10	< 1	–
CCOC(=O)C(C(C)C)n1ccc2cnc(Nc3ccc(N4CCNCC4)cc3)nc21 (stereo not drawn) [Example 231]	> 10	< 1	–
CC1CCC(n2ccc3cnc(Nc4ccc(N5CCNCC5)cc4)nc32)CC1 (stereo not drawn) [Example 240]	< 10	< 1	–
CC1CCCC(n2ccc3cnc(Nc4ccc(N5CCNCC5)cc4)nc32)C1 (stereo not drawn) [Example 242]	< 10	< 1	–
NC1CCC(n2ccc3cnc(Nc4ccc(N5CCNCC5)cc4)nc32)CC1 (stereo not drawn) [Example 243]	< 1	< 1	–
OC1CCCC(n2ccc3cnc(Nc4ccc(N5CCNCC5)cc4)nc32)C1 (stereo not drawn) [Example 244]	< 1	< 1	–
c1cc(N2CCNCC2)ccc1Nc1ncc2ccn(C34CC5CC(CC(C5)C3)C4)c2n1 [Example 245]	< 1	< 1	–
c1cc(N2CCNCC2)ccc1Nc1ncc2ccn(C3CCCCC3)c2n1 [Example 246]	< 1	< 1	–
O=C(O)[C@@H]1CCC(n2ccc3cnc(Nc4ccc(N5CCNCC5)cc4)nc32)C1 (stereo partly drawn) [Example 248]	< 10	< 1	–
c1cc(N2CCNCC2)ccc1Nc1ncc2ccn(C3CCCC3)c2n1 [Example 256]	< 10	< 1	–
c1ncc(-c2ccc(Nc3ncc4ccn(C5CCCC5)c4n3)cc2)o1 [Example 258]	< 10	> 10	–
CCN(CC)c1ccc(Nc2ncc3ccn(C4CCCC4)c3n2)cc1 [Example 261]	< 10	> 10	–
CN(C)c1ccc(Nc2ncc3ccn(C4CCCC4)c3n2)cc1 [Example 262]	< 10	> 10	–
Cc1cn(-c2ccccc2)c2nc(Nc3ccc(N4CCNCC4)cc3)ncc12 [Example 273]	> 10	> 10	–
Cc1cn(C2CC2)c2nc(Nc3ccc(N4CCNCC4)cc3)ncc12 [Example 276]	> 10	> 10	–
Cc1cn(C2CCCC2)c2nc(Nc3ccc(N4CCN(S(C)(=O)=O)CC4)cn3)ncc12 [Example 287]	> 10	10	–
COc1ccccc1Nc1ncc2c(C)cn(C3CCCC3)c2n1 [Example 293]	> 10	10	–
COc1cccc(Nc2ncc3c(C)cn(C4CCCC4)c3n2)c1 [Example 294]	< 10	10	–
Cc1cn(C2CCCC2)c2nc(Nc3ccccc3[N+](=O)[O-])ncc12 [Example 295]	> 10	10	–
Cc1cn(C2CCCC2)c2nc(Nc3ncccn3)ncc12 [Example 296]	> 10	10	–
Cc1cccnc1Nc1ncc2c(C)cn(C3CCCC3)c2n1 [Example 297]	> 10	10	–
Cc1cn(C2CCCC2)c2nc(Nc3cccc(Cl)c3)ncc12 [Example 299]	< 10	10	–
Cc1cn(C2CCCC2)c2nc(Nc3ccccc3C#N)ncc12 [Example 301]	> 10	10	–
Cc1c(Cl)c2cnc(Nc3ccc(N4CCNCC4)cn3)nc2n1C1CCCC1 [Example 334]	> 10	< 1	–
CCC(CC)n1c(C(=O)N(C)C)cc2cnc(Nc3ccc(N4CCNCC4)cc3)nc21 [Example 335, 7-(1-ethyl-propyl)-2-(4-piperazin-1-yl-phenylamino)-7H-pyrrolo[2,3-d]pyrimidine-6-carboxylic acid dimethyl amide]	< 10	< 1	–
c1cc(Nc2ncc3ccn(C4CCCC4)c3n2)ncc1N1CCNCC1 [Example 424]	> 10	–	< 1
